Key:
A549 cells = assay: Tumor volume in nude mice inoculated with A549 cells; format: in vivo; settings: for Test/Control (tumor volume): 40 mg/kg/2 days
Procedure: To further evaluate the antitumor effect of compound 3p in vivo, we performed an animal study. Mice were inoculated subcutaneously with A549 cells (5.0 × 10^6) on their shoulders. […]. […] […].
Male BALB/c nude mice, 35–40 days old and weighing 18–22 g, were supplied by Shanghai Laboratory Animal Limited Company. The mice were raised in air-conditioned rooms under controlled lighting (12 h lighting/day) and were fed with standard laboratory food and water ad libitum. Before injection into the mice, the lung cancer cells (A549) were harvested by trypsinization and washed three times with cold serum-free medium and then injected in a total volume of 0.1 mL using a 1-mL latex-free syringe (BD) within 30 min of harvest. Mice were inoculated subcutaneously with A549 cells (5.0 × 10^6) on their shoulders. When the tumor had increased to 100 mm^3 , the mice were equally randomized into 4 groups (with 6 mice/group): saline tumor control group; compound 3p 20 mg/kg/2 days group; compound 3p 40 mg/kg/2 days group; […]. The control group received 0.9% normal saline. Tumor size was measured once every 2 days in two per-pendicular dimensions with Vernier calipers and converted to tumor volume (TV) using the formula: (ab^2)/2, where a and b refer to the longer and shorter dimensions, respectively. The body weight of the animals was measured twice a week at the same time as the tumor dimension measurement and the mortality was monitored daily. After the treatments, all mice were killed and weighed simultaneously, and then tumor was segregated and weighed.

EGFR = molecular target: T1, EGFR (Homo sapiens, UniProt P00533); assay: Kinase selectivity assay (kit), EGFR; format: biochemical; settings: read-out: Inhibition of EGFR IC50
T1 construct: purchased Bio-Swamp
Procedure: (§1) The EGFR, VEGFR2, bFGF and PDGFR Kinase Assay Kit were purchased from Bio-Swamp. The experiments were performed according to the manufacturer’s instructions.

bFGF = assay: Kinase selectivity assay (kit), bFGF; format: biochemical; settings: read-out: Inhibition of bFGF IC50
Procedure: (§2) To validate whether the above anti-proliferative effect was produced by interaction of EGFR protein and the synthesized compounds, the synthesized compounds were evaluated for their abilities to inhibit the activity of four protein kinases relevant to cancer: EGFR, VEGFR2, bFGF, PDGFR. […] Additionally, the activity data inferred that the IC50 values of these compounds shared a similar tendency with their relevant IC50 values of anti-proliferative assay. […] Therefore, we could conclude that the synthesized inhibitors can inhibit the function of EGFR and the anti-proliferative effect was produced partly by interaction of EGFR protein and the compounds.
as §1

VEGFR2 = molecular target: T2, VEGFR2 (Homo sapiens, UniProt P35968); assay: Kinase selectivity assay (kit), VEGFR2; format: biochemical; settings: read-out: Inhibition of VEGFR2 IC50
T2 construct: purchased Bio-Swamp
Procedure: as §2, §1

Erythrocytes = assay: Hemolysis test; format: cell-based; settings: human erythrocytes, 3 h incubation
Procedure: Hemolytic activity was assayed using fresh capillary human blood. Erythrocytes were collected by centrifuging the blood three times in chilled phosphate buffered saline (PBS at 4 °C) at 1000 × g for 10 min. The final pellet was resuspended in PBS to give a 2% w/v solution. Using a microtitre plate, 100 μL of the erythrocyte solution was added to dextran, PLL, stearyl-PLL or stearyl-PLL+LDL (1–1000/μg/mL) in a volume of […]. Samples were then incubated for 3 h and the microtitre plate was centrifuged then at 1000 × g for 10 min and the supernatants (100 μL) transferred into a new microtitre plate. Hemoglobin release was determined spectrophotometrically using a microtitre plate reader (absorbance at 550 nm). Results were expressed as the amount of released hemoglobin induced by the compounds as a percentage of the total. Hemolysis test was tested according to the guide of biological evaluation of medical device (SFDA, China).

in vitro = format: cell-based; settings: mouse
Procedure: The cytotoxic activity in vitro was measured against mouse fibroblast NIH-3T3 cells using the MTT assay. Cells were cultured in a 96-well plate at a density of 5 × 10^5 cells and different concentrations of compounds were respectively added to each well. The incubation was permitted at 37 °C, 5% CO2 atmosphere for 24 h before the cytotoxicity assessments. 20 μL MTT reagent (4 mg/mL) was added per well 4 h before the end of the incubation. Four hours later, the plate was centrifuged at 1200 rcf for 5 min and the supernatants were removed, each well was added with 200 μL DMSO. The absorbance was measured at a wavelength of 490 nm (OD 490 nm) on an ELISA microplate reader. Three replicate wells were used for each concentration and each assay was measured three times, after which the average of IC50 was calculated.

PDGFR = assay: Kinase selectivity assay (kit), PDGFR; format: biochemical; settings: read-out: Inhibition of PDGFR IC50
Procedure: as §2, §1

HeLa = assay: MTT antiproliferation assay, HeLa; format: cell-based; settings: Homo sapiens, 72 h exposure, read-out: IC50 ± SD, HeLa
Procedure: (§3) To test the antiproliferative activities of the synthesized compounds (see supplementary Scheme S1 and S2), the target compounds were evaluated in vitro antiproliferation assays against three human cancer cell lines (MCF-7, HeLa and A549) and one human normal lung cell line.
(§4) The in vitro anticancer activities of the prepared compounds against MCF-7, HeLa and A549 cell lines were evaluated as described in the literature[23] with some modifications. Target tumor cells were grown to log phase in DMEM medium supplemented with 10% fetal bovine serum. After reaching a dilution of 1 × 10^5 cells mL^−1 with the medium, 100 μL of the obtained cell suspension was added to each well of 96-well culture plates. Subsequently, incubation was performed at 37 °C in 5% CO2 atmosphere for 48 h before the cytotoxicity assessment. Tested samples at preset concentrations were added to 6 wells with Erlotinib being employed as a positive reference. After 72 h exposure period, 25 μL of PBS containing 2.5 mg mL^−1 of MTT was added to each well. After 4 h, the medium was replaced by 150 μL DMSO to dissolve the purple formazan crystals produced. The absorbance at 570 nm of each well was measured with an ELISA plate reader. The data represented the mean of three independent experiments in triplicate and were expressed as means ± SD. The IC50 value was defined as the concentration at which 50% of the cells could survive.

A549 = assay: MTT antiproliferation assay, A549; format: cell-based; settings: Homo sapiens, 72 h exposure, read-out: IC50 ± SD, A549
Procedure: as §3, §4

[1] = Acute oral toxicity, bodyweights; format: in vivo; settings: mice
Procedure: Before the acute toxicity experiment, mice were stopped being served food but water was kept for 3 h. The test substances were dissolved in maize germ oil[24]. The preliminary experiment was performed as follows: Four dose levels, 100, 500, 2000, and 5000 mg/kg body weight and three mice for each level were used. We observed the death and evident toxicity in 7 days to determine the general concentration range. Then the administration doses were graded with geometric progression for ease of the calculation of LD50. Mice were randomly divided into groups (10 mice/group). […] The control groups received maize germ oil only. After the administration, food was withheld for 2 h.

Lung cells = assay: MTT assay, human normal lung cell line; format: cell-based; settings: read-out: IC50 ± SD, Lung cells
Procedure: as §3, §4

[2] = test system: MCF-7, HeLa and A549 cell lines; assay: Anticancer activities discussed in text (cell line not specified); format: cell-based, human; settings: comparison within series and with positive control
Procedure: According to the data presented in Table 1, it could be concluded that the activity of the tested compounds may be correlated to the variation and modifications of structure.
as §4

MCF-7 = assay: MTT antiproliferation assay, MCF-7; format: cell-based; settings: Homo sapiens, MCF7, 72 h exposure, read-out: IC50 ± SD, MCF-7
Procedure: as §3, §4

T1 sequence (P00533 25-1210): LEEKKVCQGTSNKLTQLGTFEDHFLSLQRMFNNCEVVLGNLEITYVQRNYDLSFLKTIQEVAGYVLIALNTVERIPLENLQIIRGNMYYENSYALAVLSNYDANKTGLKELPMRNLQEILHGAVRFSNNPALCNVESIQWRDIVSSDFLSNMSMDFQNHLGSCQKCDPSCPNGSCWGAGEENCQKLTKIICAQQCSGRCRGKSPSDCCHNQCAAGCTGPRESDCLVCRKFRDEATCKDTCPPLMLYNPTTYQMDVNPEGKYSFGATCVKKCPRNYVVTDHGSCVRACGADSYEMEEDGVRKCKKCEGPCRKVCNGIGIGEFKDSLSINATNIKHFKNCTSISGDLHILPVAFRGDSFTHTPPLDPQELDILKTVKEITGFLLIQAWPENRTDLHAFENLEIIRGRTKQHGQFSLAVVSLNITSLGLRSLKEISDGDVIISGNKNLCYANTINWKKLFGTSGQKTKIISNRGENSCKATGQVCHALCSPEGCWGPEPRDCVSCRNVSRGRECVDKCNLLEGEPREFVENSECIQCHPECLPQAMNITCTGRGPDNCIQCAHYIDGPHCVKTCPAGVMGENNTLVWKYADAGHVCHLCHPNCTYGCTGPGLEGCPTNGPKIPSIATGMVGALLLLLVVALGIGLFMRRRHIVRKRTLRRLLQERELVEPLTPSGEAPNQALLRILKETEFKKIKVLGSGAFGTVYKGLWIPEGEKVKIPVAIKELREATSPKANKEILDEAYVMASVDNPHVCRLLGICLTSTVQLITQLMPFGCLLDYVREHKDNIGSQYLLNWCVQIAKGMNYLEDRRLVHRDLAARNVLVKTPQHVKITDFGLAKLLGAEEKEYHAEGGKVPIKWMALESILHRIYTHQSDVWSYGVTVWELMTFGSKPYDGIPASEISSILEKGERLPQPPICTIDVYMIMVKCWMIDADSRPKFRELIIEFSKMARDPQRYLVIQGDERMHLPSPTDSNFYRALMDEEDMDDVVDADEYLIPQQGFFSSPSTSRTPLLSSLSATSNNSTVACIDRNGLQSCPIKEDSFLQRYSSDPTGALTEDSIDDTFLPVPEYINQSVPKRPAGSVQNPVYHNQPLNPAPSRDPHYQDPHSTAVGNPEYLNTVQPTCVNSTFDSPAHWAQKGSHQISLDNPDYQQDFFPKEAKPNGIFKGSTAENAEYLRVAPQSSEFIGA
T2 sequence (P35968 20-1356, species assumed): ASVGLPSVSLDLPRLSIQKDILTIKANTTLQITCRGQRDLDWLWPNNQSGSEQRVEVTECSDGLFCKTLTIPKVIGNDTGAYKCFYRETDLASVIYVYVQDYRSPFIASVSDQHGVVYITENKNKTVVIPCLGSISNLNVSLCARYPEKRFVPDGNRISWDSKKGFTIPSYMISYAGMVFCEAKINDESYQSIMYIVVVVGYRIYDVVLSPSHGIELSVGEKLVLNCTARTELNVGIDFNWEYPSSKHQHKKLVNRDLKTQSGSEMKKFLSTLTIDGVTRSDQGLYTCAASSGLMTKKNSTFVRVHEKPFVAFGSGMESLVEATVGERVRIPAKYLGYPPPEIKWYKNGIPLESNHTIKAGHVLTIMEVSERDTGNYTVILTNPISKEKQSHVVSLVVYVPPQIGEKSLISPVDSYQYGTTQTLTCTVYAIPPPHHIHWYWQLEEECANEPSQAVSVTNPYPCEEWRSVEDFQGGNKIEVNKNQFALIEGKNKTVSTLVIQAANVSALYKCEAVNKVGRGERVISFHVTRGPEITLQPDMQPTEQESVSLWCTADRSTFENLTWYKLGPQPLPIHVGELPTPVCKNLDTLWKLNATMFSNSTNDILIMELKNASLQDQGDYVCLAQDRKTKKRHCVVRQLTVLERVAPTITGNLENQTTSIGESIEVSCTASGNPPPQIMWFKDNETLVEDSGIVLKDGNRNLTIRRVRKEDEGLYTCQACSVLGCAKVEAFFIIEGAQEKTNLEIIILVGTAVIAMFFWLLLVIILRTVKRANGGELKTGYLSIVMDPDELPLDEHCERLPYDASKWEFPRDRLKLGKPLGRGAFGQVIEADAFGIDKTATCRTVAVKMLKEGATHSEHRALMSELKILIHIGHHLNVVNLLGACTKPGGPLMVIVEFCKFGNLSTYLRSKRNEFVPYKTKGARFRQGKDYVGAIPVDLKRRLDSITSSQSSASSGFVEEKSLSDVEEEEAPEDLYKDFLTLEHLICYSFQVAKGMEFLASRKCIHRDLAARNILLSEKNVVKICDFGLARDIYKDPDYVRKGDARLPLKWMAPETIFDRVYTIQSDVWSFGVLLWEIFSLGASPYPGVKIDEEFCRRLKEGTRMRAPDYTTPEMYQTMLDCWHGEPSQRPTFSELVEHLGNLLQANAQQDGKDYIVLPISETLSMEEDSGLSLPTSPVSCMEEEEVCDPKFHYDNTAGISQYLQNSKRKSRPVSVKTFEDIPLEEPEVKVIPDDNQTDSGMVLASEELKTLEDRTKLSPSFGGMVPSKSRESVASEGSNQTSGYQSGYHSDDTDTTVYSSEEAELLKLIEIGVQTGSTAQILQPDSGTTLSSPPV

COc1cc(OC)nc(NC(=O)CN2CCN(c3ccc(Cl)c(Cl)c3)CC2)n1 [3p, 2-(4-(3,4-dichlorophenyl)piperazin-1-yl)-N-(4,6-dimethoxypyrimidin-2-yl)acetamide]
Weight of tumor (A549 cells; 40 mg/kg, day 14): significantly reduced
Test/Control (tumor volume) (A549 cells; day 4): 42.79%
Test/Control (tumor volume) (A549 cells; day 6): 49.61%
Test/Control (tumor volume) (A549 cells; day 8): 50.79%
Test/Control (tumor volume) (A549 cells; day 10): 60.00%
Test/Control (tumor volume) (A549 cells; day 12): 61.22%
Effect on mice body weight (A549 cells; 14-day treatment, nude mice): did not observe significant growth inhibition of mice body weight
Mortality during the treatment (A549 cells; mouse, in vivo): none of the mice died
IC50 (EGFR): 0.02 ± 0.003 µM
IC50 (bFGF): 27.1 ± 3.17 µM
IC50 (VEGFR2): 2.15 ± 0.06 µM
Hemolysis LC30 (lytic concentration 30%) (Erythrocytes): >10000 µg/mL
IC50 at 24 h (in vitro): 239 ± 4.03 µM
IC50 (PDGFR): 17.3 ± 0.95 µM
IC50 (HeLa): 0.08 ± 0.0002 µM
IC50 (A549): 0.05 ± 0.0003 µM
Bodyweights 0 day ± SD ([1]; day 0): 22.12 ± 1.13 g
Bodyweights 7 days ± SD ([1]; day 7): 27.33 ± 1.08 g
IC50 (Lung cells): 189 ± 3.82 µM
Anticancer / antitumor activity (in words) [2]: most potent anticancer activities
IC50 (MCF-7): 0.22 ± 0.001 µM

Reference: publication PMC4563558, “Discovery of a series of novel phenylpiperazine derivatives as EGFR TK inhibitors” (Scientific Reports, 2015)
